Reference: the supplement of paper PMC4862054

Tested on: MFM-223
Assay: normalised response (% of control), CellTiter-Glo; higher = more viable cells (100 = DMSO, 0 = benzethonium chloride kill control)
Conditions: incubation time: 72 h
Method in brief: (§1)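 A 20 µl suspension of breast cancer cells was seeded into each well of 384-well plates containing compound at 5 concentrations in 10-fold steps over a compound-specific 10,000-fold range. After 72 h incubation, CellTox Green fluorescence (485/520 nm) was read first, and CellTiter-Glo luminescence was read after 10 min at room temperature. Each plate was normalised against 0.1 % DMSO (100) and a positive kill control (0), and each value is the normalised signal at one concentration.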

Compound	normalised response [%]
CC(C)C[C@@H](C(=O)N[C@H](C(=O)OC1CCCC1)c1ccccc1)[C@H](O)C(=O)NO [Tosedostat] (100 nM)	90.7
COc1cc2c(NC3CCN(C(C)C)CC3)nc(N3CCC(F)(F)CC3)nc2cc1OCCCN1CCCC1 [UNC0642] (100 nM)	96.2
COCC[n+]1c2c(n(Cc3cnccn3)c1C)C(=O)c1ccccc1C2=O [YM155] (100 nM)	26.2

Tested on: HCC1143
Assay: as above
Conditions: incubation time: 72 h
Method in brief: as §1

Compound	normalised response [%]
CNC(=O)c1ccc(N2C(=S)N(c3ccc(C#N)c(C(F)(F)F)c3)C(=O)C23CCC3)cc1F [RD162] (100 nM)	101
CNC(=O)c1cc(Oc2ccc(NC(=O)Nc3ccc(Cl)c(C(F)(F)F)c3)c(F)c2)ccn1 [Regorafenib] (100 nM)	100
c1ccc2c(CCNc3ccc(Nc4ccncc4)cc3)c[nH]c2c1 [Serdemetan] (100 nM)	99.2
CC(C)C[C@@H](C(=O)N[C@H](C(=O)OC1CCCC1)c1ccccc1)[C@H](O)C(=O)NO [Tosedostat] (100 nM)	83.5
COc1cc2c(NC3CCN(C(C)C)CC3)nc(N3CCC(F)(F)CC3)nc2cc1OCCCN1CCCC1 [UNC0642] (100 nM)	96.1
COCC[n+]1c2c(n(Cc3cnccn3)c1C)C(=O)c1ccccc1C2=O [YM155] (100 nM)	1.4

Tested on: Hs578T
Assay: as above
Conditions: incubation time: 72 h
Method in brief: as §1

Compound	normalised response [%]
CNC(=O)c1ccc(N2C(=S)N(c3ccc(C#N)c(C(F)(F)F)c3)C(=O)C23CCC3)cc1F [RD162] (100 nM)	102
CNC(=O)c1cc(Oc2ccc(NC(=O)Nc3ccc(Cl)c(C(F)(F)F)c3)c(F)c2)ccn1 [Regorafenib] (100 nM)	108
c1ccc2c(CCNc3ccc(Nc4ccncc4)cc3)c[nH]c2c1 [Serdemetan] (100 nM)	93.2
CC(C)C[C@@H](C(=O)N[C@H](C(=O)OC1CCCC1)c1ccccc1)[C@H](O)C(=O)NO [Tosedostat] (100 nM)	91.2
COc1cc2c(NC3CCN(C(C)C)CC3)nc(N3CCC(F)(F)CC3)nc2cc1OCCCN1CCCC1 [UNC0642] (100 nM)	98.6
COCC[n+]1c2c(n(Cc3cnccn3)c1C)C(=O)c1ccccc1C2=O [YM155] (100 nM)	62

Tested on: MDA-MB-468
Assay: as above
Conditions: incubation time: 72 h
Method in brief: as §1

Compound	normalised response [%]
CNC(=O)c1ccc(N2C(=S)N(c3ccc(C#N)c(C(F)(F)F)c3)C(=O)C23CCC3)cc1F [RD162] (100 nM)	108
CNC(=O)c1cc(Oc2ccc(NC(=O)Nc3ccc(Cl)c(C(F)(F)F)c3)c(F)c2)ccn1 [Regorafenib] (100 nM)	94.3
c1ccc2c(CCNc3ccc(Nc4ccncc4)cc3)c[nH]c2c1 [Serdemetan] (100 nM)	95.1
CC(C)C[C@@H](C(=O)N[C@H](C(=O)OC1CCCC1)c1ccccc1)[C@H](O)C(=O)NO [Tosedostat] (100 nM)	60.2
COc1cc2c(NC3CCN(C(C)C)CC3)nc(N3CCC(F)(F)CC3)nc2cc1OCCCN1CCCC1 [UNC0642] (100 nM)	105
COCC[n+]1c2c(n(Cc3cnccn3)c1C)C(=O)c1ccccc1C2=O [YM155] (100 nM)	0.08

Tested on: MDA-MB-453
Assay: as above
Conditions: incubation time: 72 h
Method in brief: as §1

Compound	normalised response [%]
CNC(=O)c1ccc(N2C(=S)N(c3ccc(C#N)c(C(F)(F)F)c3)C(=O)C23CCC3)cc1F [RD162] (100 nM)	108
CNC(=O)c1cc(Oc2ccc(NC(=O)Nc3ccc(Cl)c(C(F)(F)F)c3)c(F)c2)ccn1 [Regorafenib] (100 nM)	105
c1ccc2c(CCNc3ccc(Nc4ccncc4)cc3)c[nH]c2c1 [Serdemetan] (100 nM)	106
CC(C)C[C@@H](C(=O)N[C@H](C(=O)OC1CCCC1)c1ccccc1)[C@H](O)C(=O)NO [Tosedostat] (100 nM)	64.5
COc1cc2c(NC3CCN(C(C)C)CC3)nc(N3CCC(F)(F)CC3)nc2cc1OCCCN1CCCC1 [UNC0642] (100 nM)	108
COCC[n+]1c2c(n(Cc3cnccn3)c1C)C(=O)c1ccccc1C2=O [YM155] (100 nM)	27.8

Tested on: BT-549
Assay: as above
Conditions: incubation time: 72 h
Method in brief: as §1

Compound	normalised response [%]
CNC(=O)c1ccc(N2C(=S)N(c3ccc(C#N)c(C(F)(F)F)c3)C(=O)C23CCC3)cc1F [RD162] (100 nM)	97.8
CNC(=O)c1cc(Oc2ccc(NC(=O)Nc3ccc(Cl)c(C(F)(F)F)c3)c(F)c2)ccn1 [Regorafenib] (100 nM)	103
c1ccc2c(CCNc3ccc(Nc4ccncc4)cc3)c[nH]c2c1 [Serdemetan] (100 nM)	101
CC(C)C[C@@H](C(=O)N[C@H](C(=O)OC1CCCC1)c1ccccc1)[C@H](O)C(=O)NO [Tosedostat] (100 nM)	70
COc1cc2c(NC3CCN(C(C)C)CC3)nc(N3CCC(F)(F)CC3)nc2cc1OCCCN1CCCC1 [UNC0642] (100 nM)	96.5
COCC[n+]1c2c(n(Cc3cnccn3)c1C)C(=O)c1ccccc1C2=O [YM155] (100 nM)	36.9

Tested on: CAL-85-1
Assay: as above
Conditions: incubation time: 72 h
Method in brief: as §1

Compound	normalised response [%]
CNC(=O)c1ccc(N2C(=S)N(c3ccc(C#N)c(C(F)(F)F)c3)C(=O)C23CCC3)cc1F [RD162] (100 nM)	96.4
CNC(=O)c1cc(Oc2ccc(NC(=O)Nc3ccc(Cl)c(C(F)(F)F)c3)c(F)c2)ccn1 [Regorafenib] (100 nM)	99.8
c1ccc2c(CCNc3ccc(Nc4ccncc4)cc3)c[nH]c2c1 [Serdemetan] (100 nM)	103
CC(C)C[C@@H](C(=O)N[C@H](C(=O)OC1CCCC1)c1ccccc1)[C@H](O)C(=O)NO [Tosedostat] (100 nM)	74.4
COc1cc2c(NC3CCN(C(C)C)CC3)nc(N3CCC(F)(F)CC3)nc2cc1OCCCN1CCCC1 [UNC0642] (100 nM)	98.5
COCC[n+]1c2c(n(Cc3cnccn3)c1C)C(=O)c1ccccc1C2=O [YM155] (100 nM)	-0.47

Tested on: CAL-51
Assay: as above
Conditions: incubation time: 72 h
Method in brief: as §1

Compound	normalised response [%]
CNC(=O)c1ccc(N2C(=S)N(c3ccc(C#N)c(C(F)(F)F)c3)C(=O)C23CCC3)cc1F [RD162] (100 nM)	97.3
CNC(=O)c1cc(Oc2ccc(NC(=O)Nc3ccc(Cl)c(C(F)(F)F)c3)c(F)c2)ccn1 [Regorafenib] (100 nM)	97.5
c1ccc2c(CCNc3ccc(Nc4ccncc4)cc3)c[nH]c2c1 [Serdemetan] (100 nM)	84.5
CC(C)C[C@@H](C(=O)N[C@H](C(=O)OC1CCCC1)c1ccccc1)[C@H](O)C(=O)NO [Tosedostat] (100 nM)	77.9
COc1cc2c(NC3CCN(C(C)C)CC3)nc(N3CCC(F)(F)CC3)nc2cc1OCCCN1CCCC1 [UNC0642] (100 nM)	97.9
COCC[n+]1c2c(n(Cc3cnccn3)c1C)C(=O)c1ccccc1C2=O [YM155] (100 nM)	2.89

Tested on: DU-4475
Assay: as above
Conditions: incubation time: 72 h
Method in brief: as §1

Compound	normalised response [%]
CNC(=O)c1ccc(N2C(=S)N(c3ccc(C#N)c(C(F)(F)F)c3)C(=O)C23CCC3)cc1F [RD162] (100 nM)	102
CNC(=O)c1cc(Oc2ccc(NC(=O)Nc3ccc(Cl)c(C(F)(F)F)c3)c(F)c2)ccn1 [Regorafenib] (100 nM)	100
c1ccc2c(CCNc3ccc(Nc4ccncc4)cc3)c[nH]c2c1 [Serdemetan] (100 nM)	101
CC(C)C[C@@H](C(=O)N[C@H](C(=O)OC1CCCC1)c1ccccc1)[C@H](O)C(=O)NO [Tosedostat] (100 nM)	91.8
COc1cc2c(NC3CCN(C(C)C)CC3)nc(N3CCC(F)(F)CC3)nc2cc1OCCCN1CCCC1 [UNC0642] (100 nM)	89.9
COCC[n+]1c2c(n(Cc3cnccn3)c1C)C(=O)c1ccccc1C2=O [YM155] (100 nM)	20.4

Tested on: MCF-10A
Assay: as above
Conditions: incubation time: 72 h
Method in brief: as §1

Compound	normalised response [%]
CNC(=O)c1ccc(N2C(=S)N(c3ccc(C#N)c(C(F)(F)F)c3)C(=O)C23CCC3)cc1F [RD162] (100 nM)	116
CNC(=O)c1cc(Oc2ccc(NC(=O)Nc3ccc(Cl)c(C(F)(F)F)c3)c(F)c2)ccn1 [Regorafenib] (100 nM)	105
c1ccc2c(CCNc3ccc(Nc4ccncc4)cc3)c[nH]c2c1 [Serdemetan] (100 nM)	95.2
CC(C)C[C@@H](C(=O)N[C@H](C(=O)OC1CCCC1)c1ccccc1)[C@H](O)C(=O)NO [Tosedostat] (100 nM)	101
